Measurements published in patent US20070134281A1, “Investigate the potential of using beetle odours to deter slugs in vining peas” (priority 2004, published 2007).
Where two headings read alike, the source gives them in different places.

Columns and labels:
[1] = system: Deroceras reticulatum slugs; test: Glasshouse study of slug feeding damage on growing pea plants; format: in vivo; details: 2nd day of test
Description: A suitable experimental design had to be substituted for this glasshouse study, based on the principles to show avoidance behaviour. This was also remarkably achieved on a five point scale to record slug behaviour, under a simple experimental procedure which lasted for only five days, to conclude this semi-field trial just by using the existing facilities alone at […] Housewares Ltd who manufactured their items for supermarket sale, provided plastic bowls in different colours to suit a random style experiment to show this current field study inside the glasshouse. Whifford Plastics Ltd produced fluon, a test chemical which had been used before to stop slugs from escaping the planned experiment in Cardiff University, was sold in litres sufficient to cover the sides of these plastic bowls by using only a simple paint brush. F. A Smith a soil merchant supplying for Cardiff University Horticultural services at Talybont, produced John Innes Potting compost No 2 commonly used in a nursery for growing peas, ideally because the sterilised soil with peat and grit added has a base fertiliser for quick germination. […] To keep the peas nice and damp and the slugs happy, the multipurpose peat based compost from the local B&Q store was adequate to support the trays of peas inside the plastic bowls which was 2⁄3 filled with this moist peat and the tray positioned so that the rim is flush with the surface of the peat. All the slugs used in this experiment were collected from the fields around Talybont, where they were actively seen to be searching for food lurking under the plants during the early hours of the morning at sunrise and pre-starved for a further 24 hours at 15° C., 80% RH, 12 hour light: dark regime, prior to testing inside the glasshouse. These were also the same species of slugs causing contamination during the routine operation in […] has a latin name Deroceras reticulatum, already well known for its physical damage to other crops under use in the UK. […]

[2] = system: Deroceras reticulatum slugs; test: Petri dish choice test (control and test sector) with test solutions made from commercial organic acids; format: in vivo; details: 24 hour period, n=10 replicates, laboratory
Description: Next, using the results obtained from Mass spectrometry to make up the test solutions with these organic acids, the behaviour of the slugs in the presence of beetle odours was now investigated. Initially this test was carried out inside the laboratory in the manner previously shown for pygidial secretions using a control and test sector to show the slug's choice overnight within a petri dish. […] However the results of all these tests still remains to be analysed and will appear in the PhD thesis only after using a computer software for image analysis.

[3] = cited from earlier work

Row | SMILES | Feeding damage by slugs on growing pea plants [1] | Avoidance of treated area (proportion of total area of petri dish covered by slug trails) [2] | Solubility in water ([3]; 20° C.) | Solubility in water ([3]; cold water) | Solubility in water ([3]; hot water)
1 | CC(=O)O [Acetic Acid] | Concern | – | – | – | –
2 | O=CO [Formic Acid] | – | scare slugs stiff | – | – | –
3 | C=C(C)C(=O)O [Methacrylic Acid] | damage was effectively reduced | – | 9.7 g/100 ml (20° C.) | – | –
4 | C/C=C(\C)C(=O)O [Tiglic Acid] | Concern | – | – | sparingly | soluble
